Test results reported in patent US4015974A, “Amido phosphorothiolates” (priority 1972, dated 1977).
Values after ≈ are worked out from the molar mass of the structure shown.

Assays:
Format in all cases: in vivo
[1] = test system: large crabgrass (Digitaria sanguinalis); experiment: Pre-emergence application, herbicidal effect on large crabgrass (Table 1); parameters: key: 0: not damaged; 5: completely killed; settings: 20 days after application, score 0-5
Outline: (§1)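 Scores run from 0 (undamaged) to 5 (fully killed), read 20 days post-treatment. Compounds were applied as water-diluted wettable powders to soil over freshly covered seeds in ~10 cm pots, with plants kept in a greenhouse.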

[2] = test system: redroot pigweed (Amaranthus retroflexus); experiment: Pre-emergence application, herbicidal effect on redroot pigweed (Table 1); parameters: key: 0: not damaged; 5: completely killed; settings: 20 days after application, score 0-5
Outline: as §1

[3] = test system: barnyard grass (Echinochloa crus-galli); experiment: Water application, herbicidal effect on barnyard grass (Table 2); parameters: key: 0: not damaged; 5: completely killed; settings: 25 days, score 0-5
Outline: (§2)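 Scores (0–5) taken 25 days post-treatment. Wettable-powder formulations were applied into standing water over paddy soil holding 3-leaf-stage transplanted rice, sown Echinochloa and naturally emerging monochoria, false pimpernel and toothcup.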

radish = experiment: Pre-emergence application, herbicidal effect on radish (Table 1); parameters: key: 0: not damaged; 5: completely killed; settings: 20 days after application, score 0-5
Outline: as §1

[4] = test system: common lambsquarter (Chenopodium album); experiment: Pre-emergence application, herbicidal effect on common lambsquarter (Table 1); parameters: key: 0: not damaged; 5: completely killed; settings: 20 days after application, score 0-5
Outline: as §1

[5] = test system: broad-leaved weeds, e.g., monochoria, false pimpernel and toothcup; experiment: Water application, herbicidal effect on broad-leaved weeds (Table 2); parameters: key: 0: not damaged; 5: completely killed; settings: 25 days, score 0-5
Outline: as §2

[6] = test system: broad-leaved weeds, e.g., monochoria, false pimpernel and toothcup; experiment: as above; parameters: key: 0: no effect; 1: very slightly affected; 2: slightly affected; 3: moderately affected; 4: considerably affected; 5: completely killed; settings: 10 g/a, 25 days, score 0-5
Description: (§3) Wagner pots of 14 cm. in diameter, which had been packed with 1.5 kg. of paddy field soil, were brought into the state of paddy fields. To the pots were transplanted rice seedlings at the 3-leave stage. Further, seeds of barnyard grass (Echinochloa crus-galli) were sowed in the pots and required amounts of test compounds were applied to the soil under water lodged condition. 25 days after application, the degrees of herbicidal activity and phytotoxity were investigated on above-mentioned plants which had been transplanted and sowed, and on broad-leaved weeds, e.g., monochoria (Monochoria viaginalis Presl.), false pimpernel (Linderna pyxidaria) and toothcup (Rotala indica Koehue), which had been spontaneously germinated. The test compounds were used in the form of wettable powder. The herbicidal effects and the phytotoxity were evaluated as follows by the numerals ranging from 0 to 5.

[7] = test system: common purslane (Portulaca oleracea); experiment: Pre-emergence application, herbicidal effect on common purslane (Table 1); parameters: key: 0: not damaged; 5: completely killed; settings: 20 days after application, score 0-5
Outline: as §1

[8] = test system: rice stem borer (Chilo suppressalis); experiment: Lethal effect on rice stem borer (Table 6); settings: 50 % emulsifiable concentrate, 1000 fold dilute solution, 4 days after application
Description: Eggs just before hatch of the rice stem borer were applied in a ratio of 100/pot near the root of rice plants grown up into the tillering stage in an […] Wagner's pot. After eggs were hatched and the larvae entered into stems of rice plants, an 1000 fold dilute solution of each 50 % emulsifiable concentrates of the present compounds was applied by means of a turn table.

rice = experiment: Water application, phytotoxicity on rice (Table 2); parameters: key: 0: no effect; 1: very slightly affected; 2: slightly affected; 3: moderately affected; 4: considerably affected; 5: completely killed; settings: 25 days, score 0-5
Outline: as §2

[9] = test system: barnyard grass (Echinochloa crus-galli); experiment: Pre-emergence application, herbicidal effect on barnyard grass (Table 1); parameters: key: 0: not damaged; 5: completely killed; settings: 20 days after application, score 0-5
Outline: as §1

[10] = test system: carmine mite (Tetranychus telavius); experiment: Lethal effect on carmine mite, leaf dipping (Table 3); settings: foliar, 48 h
Method: A large number of carmine mite adult were made parasitic on leaves of potted kidney beans at a 2-leaves stage which had elapsed 10 days after sowing. The leaves of kidney bean on which carmine mites had been made parasitic were dipped for 1 minute in each aqueous solution of the present compounds of wettable powder type. Water was given to the leaves not to kill them, and after 48 hours the death and alive were observed microscopically to calculate the mortality. Values of LC50 were obtained from the mortality.

nematode = experiment: Effect on nematode (Table 7); parameters: tested at 500 ppm; settings: 500 p.p.m., 24 hours
Method: 0.5 ml. of a nematode-containing aqueous solution separated from food according to Baermann's method was placed in a test tube with ground stopper containing 0.5 ml. of an aqueous dilute solution of each emulsifiable concentrates of the present compounds. The concentration of the active ingredient in the mixture was adjusted to 500 p.p.m. After 24 hours, the death and alive were observed microscopically to calculate the mortality.

[11] = test system: barnyard grass (Echinochloa crus-galli); experiment: Water application, herbicidal effect on barnyard grass (Table 2); parameters: key: 0: no effect; 1: very slightly affected; 2: slightly affected; 3: moderately affected; 4: considerably affected; 5: completely killed; settings: 10 g/a, 25 days, score 0-5
Description: as §3

Row | Compound | Herbicidal effect, large crabgrass ([1]; 10 g./a.) | Herbicidal effect, large crabgrass ([1]; 20 g./a.) | Herbicidal effect, large crabgrass ([1]; 40 g./a.) | Herbicidal effect, redroot pigweed ([2]; 10 g./a.) | Herbicidal effect, redroot pigweed ([2]; 20 g./a.) | Herbicidal effect, redroot pigweed ([2]; 40 g./a.) | Herbicidal effects, barnyard grass ([3]; 20 g/a) | Herbicidal effects, barnyard grass ([3]; 40 g/a) | Herbicidal effect, radish (radish; 10 g./a.) | Herbicidal effect, radish (radish; 20 g./a.) | Herbicidal effect, radish (radish; 40 g./a.) | Herbicidal effect, common lambsquarter ([4]; 10 g./a.) | Herbicidal effect, common lambsquarter ([4]; 20 g./a.) | Herbicidal effect, common lambsquarter ([4]; 40 g./a.) | Herbicidal effects, broad-leaved weeds ([5]; 20 g/a) | Herbicidal effects, broad-leaved weeds ([5]; 40 g/a) | Herbicidal effect, common purslane ([7]; 10 g./a.) | Herbicidal effect, common purslane ([7]; 20 g./a.) | Herbicidal effect, common purslane ([7]; 40 g./a.) | Phytotoxicity on rice (rice; 10 g/a) | also measured
1 | CCCCSP(=O)(OCC)SCC(=O)N1CCC(C)CC1 (stereo not shown) [Compound 24] | 4 | 5 | 5 | 3 | 4 | 4 | 5 | 5 | 0 | 0 | 0 | 3 | 4 | 4 | 5 | 5 | 4 | 4 | 4 | 0 | Herbicidal effects, barnyard grass ([3]; 10 g/a): 5; Herbicidal effects, broad-leaved weeds [6]: 4; Mortality [8]: 83.0%; Phytotoxicity on rice (rice; 20 g/a): 0; Phytotoxicity on rice (rice; 40 g/a): 0; Herbicidal effect, barnyard grass ([9]; 10 g./a.): 4; Herbicidal effect, barnyard grass ([9]; 20 g./a.): 5; Herbicidal effect, barnyard grass ([9]; 40 g./a.): 5
2 | CCCCSP(=O)(OCC)SCC(=O)N1CCCCC1C (stereo not shown) [Compound 4] | 5 | 5 | 5 | 4 | 4 | 4 | 5 | 5 | 0 | 0 | 0 | 4 | 4 | 5 | 5 | 5 | 4 | 4 | 5 | 0 | LC50 [10]: 11.4 µg/mL (≈ 32.2 µM); Herbicidal effects, barnyard grass ([3]; 10 g/a): 5; Herbicidal effects, broad-leaved weeds [6]: 4; Mortality (nematode): 100%; Mortality [8]: 97.6%; Phytotoxicity on rice (rice; 20 g/a): 0; Phytotoxicity on rice (rice; 40 g/a): 0; Herbicidal effect, barnyard grass ([9]; 10 g./a.): 4; Herbicidal effect, barnyard grass ([9]; 20 g./a.): 5; Herbicidal effect, barnyard grass ([9]; 40 g./a.): 5
3 | CCOP(=O)(SCCCC(C)C)SCC(=O)N1CCCCC1CC (stereo not shown) [Compound 80] | 5 | 5 | 5 | 3 | 4 | 5 | 5 | 5 | 0 | 0 | 0 | 3 | 4 | 5 | 5 | 5 | 3 | 4 | 5 | 0 | Herbicidal effects, broad-leaved weeds ([5]; 10 g/a): 5; Herbicidal effects, barnyard grass [11]: 4; Phytotoxicity on rice (rice; 20 g/a): 0; Phytotoxicity on rice (rice; 40 g/a): 2; Herbicidal effect, barnyard grass ([9]; 10 g./a.): 4; Herbicidal effect, barnyard grass ([9]; 20 g./a.): 5; Herbicidal effect, barnyard grass ([9]; 40 g./a.): 5
